Measurements reported in ChEMBL document CHEMBL5614434, “A Lysosome-Targeting hNEU1 Inhibitor Treats Myocardial Infarction: A Potential Therapeutic Breakthrough” (J Med Chem, 2024).
Active and inactive are the calls of the source. The rule behind the calls is not given here.

Columns and labels:
Mus musculus [1] = test: Cardioprotective activity against isoproterenol-induced myocardial injury in C57/6J mouse model assessed as reduction in cardiac swelling size at 15 mg/kg, ip pretreated with isoproterenol for 3 days followed by compound addition and measured after 3 days (reference value: 5.15 millimeter); assay type: functional; settings: time 3 day
Mus musculus [2] = test: Cardioprotective activity against isoproterenol-induced myocardial injury in C57/6J mouse model assessed as appearance of clear cell boundaries in heart at 15 mg/kg, ip pretreated with isoproterenol for 3 days followed by compound addition and measured after 3 days by H and E staining based analysis; assay type: functional, organism-based; settings: time 3.0 day
Mus musculus [3] = test: Cardioprotective activity against isoproterenol-induced myocardial injury in C57/6J mouse model assessed as reduction in eosinophil count at 15 mg/kg, ip pretreated with isoproterenol for 3 days followed by compound addition and measured after 3 days; assay type: functional, organism-based; settings: time 3.0 day
[4] = Metabolic stability in mouse liver microsomes assessed as parent compound remaining measured after 60 mins in presence of NADPH regenerating system by LC-MS/MS analysis; assay type: ADME, Microsome; settings: read-out: Stability
[5] = Metabolic stability in mouse liver microsomes assessed as parent compound remaining measured after 30 mins in absence of NADPH regenerating system by LC-MS/MS analysis; assay type: ADME, Microsome; settings: read-out: Stability
[6] = Metabolic stability in mouse liver microsomes assessed as parent compound remaining measured after 15 mins in presence of NADPH regenerating system by LC-MS/MS analysis; assay type: ADME, Microsome; settings: read-out: Stability
H9c2 [7] = test: Cytotoxicity against rat H9c2 cells assessed as cell viability at 0.001 to 50 uM under normoxia condition by CCK-8 method; assay type: toxicity, cell-based; settings: h9c2, 50 µM, dose 0.001-50 µM
Mus musculus [8] = test: Cardioprotective activity against isoproterenol-induced myocardial injury in C57/6J mouse model assessed as reduction in neutrophil count at 15 mg/kg, ip pretreated with isoproterenol for 3 days followed by compound addition and measured after 3 days; assay type: functional, organism-based; settings: time 3.0 day
Mus musculus [9] = test: Cardioprotective activity against isoproterenol-induced myocardial injury in C57/6J mouse model assessed as reduction in CK value in serum at 15 mg/kg, ip pretreated with isoproterenol for 3 days followed by compound addition and measured after 3 days by automatic biochemical analysis; assay type: functional, organism-based; settings: time 3.0 day
[10] = Metabolic stability in mouse liver microsomes assessed as clearance measured upto 60 mins in presence of NADPH regenerating system by LC-MS/MS analysis; assay type: ADME, Microsome; settings: read-out: CLH
[11] = Metabolic stability in mouse liver microsomes assessed as parent compound remaining measured after 45 mins in presence of NADPH regenerating system by LC-MS/MS analysis; assay type: ADME, Microsome; settings: read-out: Stability
H9c2 [12] = test: Induction of apoptosis in isoproterenol-induced rat H9c2 cells assessed as early apoptotic cells at 0.1 micromol/L by annexin V-FITC and PI staining based flow cytometry analysis (reference value: 10.37%); assay type: toxicity, cell-based; settings: h9c2, 0.1 µM, dose 0.1 µmol/L
Mus musculus [13] = test: Cardioprotective activity against isoproterenol-induced myocardial injury in C57/6J mouse model assessed as inhibition of collagen fiber proliferation at 15 mg/kg, ip pretreated with isoproterenol for 3 days followed by compound addition and measured after 3 days by masson staining based analysis; assay type: functional, organism-based; settings: time 3.0 day
H9c2 [14] = test: Induction of autophagy in isoproterenol-induced rat H9c2 cells assessed as increase in LC3-I to LC3-II conversion by confocal microscopy based analysis; assay type: functional, cell-based
Mus musculus [15] = test: Cardioprotective activity against isoproterenol-induced myocardial injury in C57/6J mouse model assessed as reduction in neutrophil ratio at 15 mg/kg, ip pretreated with isoproterenol for 3 days followed by compound addition and measured after 3 days; assay type: functional, organism-based; settings: time 3.0 day
[16] = Apparent […] clearance in male C57/6J mouse at 15 mg/kg, ip measured upto 24 hrs by LC-MS/MS analysis; assay type: ADME, organism-based; settings: in vivo
[17] = Apparent volume of distribution during terminal phase in male C57/6J mouse at 15 mg/kg, ip measured upto 24 hrs by LC-MS/MS analysis; assay type: ADME, organism-based; settings: in vivo, read-out: Vz/F
[18] = Metabolic stability in mouse liver microsomes assessed as parent compound remaining measured after 60 mins in absence of NADPH regenerating system by LC-MS/MS analysis; assay type: ADME, Microsome; settings: read-out: Stability
[19] = Drug uptake in lysosomes of rat H9c2 cells assessed as time required for compound concentration in lysosomes to exceed the cell lysates by HPLC analysis; assay type: ADME, subcellular, Lysosome
Mus musculus [20] = test: Cardioprotective activity against isoproterenol-induced myocardial injury in C57/6J mouse model assessed as decrease in pericardial thickness at 15 mg/kg, ip pretreated with isoproterenol for 3 days followed by compound addition and measured after 3 days by H and E staining based analysis; assay type: functional, organism-based; settings: time 3.0 day
[21] = Metabolic stability in mouse liver microsomes assessed as parent compound remaining measured after 30 mins in presence of NADPH regenerating system by LC-MS/MS analysis; assay type: ADME, Microsome; settings: read-out: Stability
[22] = Observed MRT(infinity) in male C57/6J mouse at 15 mg/kg, ip measured upto 24 hrs by LC-MS/MS analysis; assay type: ADME, organism-based; settings: in vivo
[23] = Metabolic stability in mouse liver microsomes assessed as parent compound remaining measured after 15 mins in absence of NADPH regenerating system by LC-MS/MS analysis; assay type: ADME, Microsome; settings: read-out: Stability
H9c2 [24] = test: Induction of autophagy in isoproterenol-induced rat H9c2 cells transfected with GFP-tagged LC3 assessed as increase in number of green fluorescence by confocal microscopy analysis; assay type: functional, cell-based
H9c2 [25] = test: Induction of autophagy in isoproterenol-induced rat H9c2 cells assessed as downregulation of PARP1 expression by Western blot analysis; assay type: functional, cell-based
[26] = AUClast in male C57/6J mouse at 15 mg/kg, ip measured upto 24 hrs by LC-MS/MS analysis; assay type: ADME, organism-based; settings: in vivo
H9c2 [27] = test: Cytotoxicity against isoproterenol-induced rat H9c2 cells assessed as cell viability at 0.001 to 1 uM under normoxia condition by CCK-8 method; assay type: toxicity, cell-based; settings: h9c2, 1 µM, dose 0.001-1 µM
[28] = Metabolic stability in mouse liver microsomes assessed as parent compound remaining measured after 0.5 mins in absence of NADPH regenerating system by LC-MS/MS analysis; assay type: ADME, Microsome; settings: read-out: Stability
H9c2 [29] = test: Induction of apoptosis in isoproterenol-induced rat H9c2 cells assessed as late apoptotic cells at 0.1 micromol/L by annexin V-FITC and PI staining based flow cytometry analysis (reference value: 11.49%); assay type: toxicity, cell-based; settings: h9c2, 0.1 µM, dose 0.1 µmol/L
H9c2 [30] = test: Upregulation of cytochrome-c level in isoproterenol-induced rat H9c2 cells at 0.01 to 1 uM by Western blot analysis; assay type: functional, cell-based; settings: dose 0.01-1 µM
[31] = Metabolic stability in mouse liver microsomes assessed as half life measured upto 60 mins in presence of NADPH regenerating system by LC-MS/MS analysis; assay type: ADME, Microsome
Mus musculus [32] = test: Cardioprotective activity against isoproterenol-induced myocardial injury in C57/6J mouse model assessed as reduction in pericardial thickness at 15 mg/kg, ip pretreated with isoproterenol for 3 days followed by compound addition and measured after 3 days by masson staining based analysis; assay type: functional, organism-based; settings: time 3.0 day
[33] = Metabolic stability in mouse liver microsomes assessed as parent compound remaining measured after 45 mins in absence of NADPH regenerating system by LC-MS/MS analysis; assay type: ADME, Microsome; settings: read-out: Stability
Mus musculus [34] = test: Cardioprotective activity against isoproterenol-induced myocardial injury in C57/6J mouse model assessed as effect on cTNI level in serum at 15 mg/kg, ip pretreated with isoproterenol for 3 days followed by compound addition and measured after 3 days by automatic biochemical analysis; assay type: functional, organism-based; settings: time 3.0 day
Mus musculus [35] = test: Cardioprotective activity against isoproterenol-induced myocardial injury in C57/6J mouse model assessed as suppression of mTORC1 overexpression at 15 mg/kg, ip pretreated with isoproterenol for 3 days followed by compound addition and measured after 3 days by immunohistochemistry analysis; assay type: functional, organism-based; settings: time 3.0 day
[36] = Toxicity in isoproterenol-induced male C57/6J mouse model assessed as recovery of growth rate at 15 mg/kg, ip pretreated with isoproterenol for 3 days followed by compound addition and measured after 3 days; assay type: organism-based; settings: in vivo, 72 h, time 3 day
[37] = Passive permeability in MDCK cells; assay type: ADME, cell-based, Canis lupus familiaris; settings: dog, read-out: permeability
H9c2 [38] = test: Downregulation of mTORC1 level in isoproterenol-induced rat H9c2 cells by Western blot analysis; assay type: functional, cell-based; settings: dose 0.01-1 µM
H9c2 [39] = test: Upregulation of Ho-1 level in isoproterenol-induced rat H9c2 cells at 0.01 to 1 uM by Western blot analysis; assay type: functional, cell-based; settings: dose 0.01-1 µM
[40] = Tmax in male C57/6J mouse at 15 mg/kg, ip measured upto 24 hrs by LC-MS/MS analysis; assay type: ADME, organism-based; settings: in vivo
[41] = Permeability of compound in MDCK cells; assay type: ADME, cell-based, Canis lupus familiaris; settings: dog, read-out: permeability
Mus musculus [42] = test: Cardioprotective activity against isoproterenol-induced myocardial injury in C57/6J mouse model assessed as decrease in CK-MB level in serum at 15 mg/kg, ip pretreated with isoproterenol for 3 days followed by compound addition and measured after 3 days by automatic biochemical analysis; assay type: functional, organism-based; settings: time 3.0 day
[43] = Cmax in male C57/6J mouse at 15 mg/kg, ip measured upto 24 hrs by LC-MS/MS analysis; assay type: ADME, organism-based; settings: in vivo
H9c2 [44] = test: Induction of ATP production in isoproterenol-induced rat H9c2 cells at 0.1 micromol/L by fluorescence based analysis; assay type: functional; settings: dose 0.1 µmol/L
Mus musculus [45] = test: Cardioprotective activity against isoproterenol-induced myocardial injury in C57/6J mouse model assessed as reduction in eosinophil ratio at 15 mg/kg, ip pretreated with isoproterenol for 3 days followed by compound addition and measured after 3 days; assay type: functional, organism-based; settings: time 3.0 day
H9c2 [46] = test: Inhibition of ROS production in isoproterenol-induced rat H9c2 cells assessed as reduction in DCF value at 0.1 uM by DCFH-DA staining based flow cytometry analysis (reference value: 371.9); assay type: functional
[47] = Half life in male C57/6J mouse at 15 mg/kg, ip measured upto 24 hrs by LC-MS/MS analysis; assay type: ADME, organism-based; settings: in vivo
[48] = AUC infinity in male C57/6J mouse at 15 mg/kg, ip measured upto 24 hrs by LC-MS/MS analysis; assay type: ADME, organism-based; settings: in vivo
[49] = Metabolic stability in mouse liver microsomes assessed as parent compound remaining measured after 0.5 mins in presence of NADPH regenerating system by LC-MS/MS analysis; assay type: ADME, Microsome; settings: read-out: Stability
[50] = Dose normalized AUClast in male C57/6J mouse at 15 mg/kg, ip measured upto 24 hrs by LC-MS/MS analysis; assay type: ADME, organism-based; settings: in vivo
Mus musculus [51] = test: Cardioprotective activity against isoproterenol-induced myocardial injury in C57/6J mouse model assessed as decrease in heart weight ratio at 15 mg/kg, ip pretreated with isoproterenol for 3 days followed by compound addition and measured after 3 days (reference value: 0.56 %); assay type: functional; parameters: scale not given: the % may be the effect or the level left; settings: time 3 day
H9c2 [52] = test: Induction of autophagy in isoproterenol-induced rat H9c2 cells assessed as downregulation of P62 expression by Western blot analysis; assay type: functional, cell-based

CCC(CC)O[C@@H]1C=C(C(=O)OCCN2CCOCC2)C[C@H](N)[C@H]1NC(C)=O
Activity (Mus musculus [1]): 4.35 mm | Activity (Mus musculus [2]): Active | Activity (Mus musculus [3]): Active | remaining at 1 h [4]: 77.2% | remaining at 0.5 h [5]: 109% | remaining at 0.25 h [6]: 89.9% | Activity (H9c2 [7]): Non-Toxic | Activity (Mus musculus [8]): Active | Activity (Mus musculus [9]): Active | microsomal CLint [10]: 7.53 µL/min/mg | remaining at 0.75 h [11]: 83% | Activity (H9c2 [12]): 6.07% | Activity (Mus musculus [13]): Active | Activity (H9c2 [14]): Active | Activity (Mus musculus [15]): Active | CL/F [16]: 120 mL/min/kg | Vd/F [17]: 24 L/kg | remaining at 1 h [18]: 97.2% | Time [19]: 3.43 min | Activity (Mus musculus [20]): Active | remaining at 0.5 h [21]: 83.9% | MRT inf [22]: 1.01 h | remaining at 0.25 h [23]: 106% | Activity (H9c2 [24]): Active | Activity (H9c2 [25]): Active | AUC(0-t) at 24 h [26]: 2080 ng·h/mL | Activity (H9c2 [27]): Non-Toxic | remaining at 0.5 min [28]: 100% | Activity (H9c2 [29]): 0.15% | Activity (H9c2 [30]): Active | half-life [31]: 184 min | Activity (Mus musculus [32]): Active | remaining at 0.75 h [33]: 104% | Activity (Mus musculus [34]): Active | Activity (Mus musculus [35]): Active | Activity [36]: Non-Toxic | Papp [37]: > 20 ×10⁻⁶ cm/s | Activity (H9c2 [38]): Dose-Dependent Effect | Activity (H9c2 [39]): Active | Tmax [40]: 15 min | Papp [41]: 44 ×10⁻⁶ cm/s | Activity (Mus musculus [42]): Active | Cmax [43]: 2380 ng/mL | Activity (H9c2 [44]): 48.9 nmol/mg | Activity (Mus musculus [45]): Active | Activity (H9c2 [46]): 203.6 | half-life [47]: 142 min | AUC(0-inf) [48]: 2100 ng·h/mL | remaining at 0.5 min [49]: 100% | AUClast/dose [50]: 139 kg·ng·h/mL/mg | Activity (Mus musculus [51]): 0.46% | Activity (H9c2 [52]): Active
